In BindingDB's records for doi:10.1016/j.chembiol.2013.07.014 (University of Massachusetts, 2013):

Assays:
Assay in all cases: HIV-1 protease inhibition assay
Details in all cases: pH 4.7; 25 °C
[1] = target: T1, Gag-Pol polyprotein [484-582,Q491K,I494L,I497V,V499I,E519D,I534V,R541K,D544E,Q553K,A555V,L573M] (Human immunodeficiency virus, UniProt Q9QBY3, A555V/D544E/E519D/I494L/I497V/I534V/L573M/Q491K/Q553K/R541K/V499I)
T1 construct: 484-582
Experimental: (§1) The reaction mixture contained 2 µL of protease and 2 µL of inhibitor (or DMSO as a control) and was incubated for 20-30 min at room temperature prior to the substrate cleavage reaction. 150 µL of a 1 µM substrate were used in substrate buffer (0.1 M sodium acetate, 1 M sodium chloride, 1 mM EDTA, 1 MM DTT, 2% DMSO, and 1 mg/mL BSA with an adjusted pH of 4.7).

[2] = target: T2, Gag-Pol polyprotein [484-582,Q491K,I497V,V499I,E519D,G532V,I538V,R541K,D544E,L547P,Q553K,V566A,L573M] (Human immunodeficiency virus, UniProt Q9QBY3, D544E/E519D/G532V/I497V/I538V/L547P/L573M/Q491K/Q553K/R541K/V499I/V566A)
T2 construct: 484-582
Experimental: as §1

[3] = target: T3, Gag-Pol polyprotein [484-582,Q491K,I497V,V499I,E519D,R541K,D544E,L547P,Q553K,A555V,G557S,I568V,L573M,L574M] (Human immunodeficiency virus, UniProt Q9QBY3, A555V/D544E/E519D/G557S/I497V/I568V/L547P/L573M/L574M/Q491K/Q553K/R541K/V499I)
T3 construct: 484-582
Experimental: as §1

| SMILES | Ki [1] [nM] | Ki [2] [nM] | Ki [3] [nM] |
| --- | --- | --- | --- |
| CC[C@H](C)CN(C[C@@H](O)[C@H](Cc1ccccc1)NC(=O)O[C@H]1CO[C@H]2OCC[C@H]21)S(=O)(=O)c1ccc(CO)cc1 [(3R,3aS,6aR)-Hexahydrofuro[2,3-b]furan-3-yl ((2S,3R)-3-hydroxy-4-(4-(hydroxymethyl)-N-((S)-2-methylbutyl)phenylsulfonamido)-1-phenylbutan-2-yl)carbamate (10c)] | 0.013 | 0.022 | 0.004 |
| CC[C@H](C)CN(C[C@@H](O)[C@H](Cc1ccccc1)NC(=O)O[C@H]1CO[C@H]2OCC[C@H]21)S(=O)(=O)c1ccc(OC)cc1 [(3R,3aS,6aR)-Hexahydrofuro[2,3-b]furan-3-yl ((2S,3R)-3-hydroxy-4-(4-methoxy-N-((S)-2-methylbutyl)phenylsulfonamido)-1-phenylbutan-2-yl)carbamate (10b)] | 0.103 | 0.005 | 0.021 |
| CC[C@H](C)CN(C[C@@H](O)[C@H](Cc1ccccc1)NC(=O)O[C@H]1CO[C@H]2OCC[C@H]21)S(=O)(=O)c1ccc2c(c1)OCO2 [(3R,3aS,6aR)-Hexahydrofuro[2,3-b]furan-3-yl ((2S,3R)-3-hydroxy-4-(N-((S)-2-methylbutyl)benzo[d][1,3]dioxole-5-sulfonamido)-1-phenylbutan-2-yl)carbamate (10d)] | 0.035 | 0.029 | 0.099 |
| CC[C@H](C)CN(C[C@@H](O)[C@H](Cc1ccccc1)NC(=O)O[C@H]1CO[C@H]2OCC[C@H]21)S(=O)(=O)c1ccc2ncsc2c1 [(3R,3aS,6aR)-Hexahydrofuro[2,3-b]furan-3-yl ((2S,3R)-3-hydroxy-4-(N-((S)-2-methylbutyl)benzo[d]thiazole-6-sulfonamido)-1-phenylbutan-2-yl)carbamate (10e)] | 0.025 | 0.012 | 0.041 |
| CCC(CC)CN(C[C@@H](O)[C@H](Cc1ccccc1)NC(=O)O[C@H]1CO[C@H]2OCC[C@H]21)S(=O)(=O)c1ccc(N)cc1 [(3R,3aS,6aR)-Hexahydrofuro[2,3-b]furan-3-yl ((2S,3R)-4-(4-amino-N-(2-ethylbutyl)phenylsulfonamido)-3-hydroxy-1-phenylbutan-2-yl)carbamate (11a)] | 0.062 | 0.034 | 0.022 |
| CC[C@H](C)CN(C[C@@H](O)[C@H](Cc1ccccc1)NC(=O)O[C@H]1CO[C@H]2OCC[C@H]21)S(=O)(=O)c1ccc(N)cc1 [(3R,3aS,6aR)-Hexahydrofuro[2,3-b]furan-3-yl ((2S,3R)-4-(4-amino-N-((S)-2-methylbutyl)phenylsulfonamido)-3-hydroxy-1-phenylbutan-2-yl)carbamate (10a)] | 0.006 | 0.016 | 0.013 |
| CCC(CC)CN(C[C@@H](O)[C@H](Cc1ccccc1)NC(=O)O[C@H]1CO[C@H]2OCC[C@H]21)S(=O)(=O)c1ccc(CO)cc1 [(3R,3aS,6aR)-Hexahydrofuro[2,3-b]furan-3-yl ((2S,3R)-4-(N-(2-ethylbutyl)-4-(hydroxymethyl)phenylsulfonamido)-3-hydroxy-1-phenylbutan-2-yl)carbamate (11c)] | 0.026 | 0.005 | 0.07 |
| CCC(CC)CN(C[C@@H](O)[C@H](Cc1ccccc1)NC(=O)O[C@H]1CO[C@H]2OCC[C@H]21)S(=O)(=O)c1ccc(OC)cc1 [(3R,3aS,6aR)-Hexahydrofuro[2,3-b]furan-3-yl ((2S,3R)-4-(N-(2-ethylbutyl)-4-methoxyphenylsulfonamido)-3-hydroxy-1-phenylbutan-2-yl)carbamate (11b)] | 0.01 | 0.001 | 0.134 |
| CCC(CC)CN(C[C@@H](O)[C@H](Cc1ccccc1)NC(=O)O[C@H]1CO[C@H]2OCC[C@H]21)S(=O)(=O)c1ccc2c(c1)OCO2 [(3R,3aS,6aR)-Hexahydrofuro[2,3-b]furan-3-yl ((2S,3R)-4-(N-(2-ethylbutyl)benzo[d][1,3]dioxole-5-sulfonamido)-3-hydroxy-1-phenylbutan-2-yl)carbamate (11d)] | 0.006 | 0.034 | 0.104 |
| CCC(CC)CN(C[C@@H](O)[C@H](Cc1ccccc1)NC(=O)O[C@H]1CO[C@H]2OCC[C@H]21)S(=O)(=O)c1ccc2ncsc2c1 [(3R,3aS,6aR)-Hexahydrofuro[2,3-b]furan-3-yl ((2S,3R)-4-(N-(2-ethylbutyl)benzo[d]thiazole-6-sulfonamido)-3-hydroxy-1-phenylbutan-2-yl)carbamate (11e)] | 0.108 | 0.126 | 0.052 |
